Reference: patent US10550100B2, “5-[3-[piperzin-1-yl]-3-oxo-propyl]-imidazolidine-2,4-dione derivatives as ADAMTS 4 and 5 inhibitors for treating E.G. osteoarthritis” (GALAPAGOS NV, priority 2016, dated 2020)
Like-named read-outs stand apart in the source and are kept apart here.

Legend:
Format in all cases: biochemical
human ADAMTS-5 [1] = molecular target: T1, human ADAMTS-5 (Homo sapiens (Human), UniProt Q9UNA0); assay: hADAMTS-5 TBIS-1 cleavage assay, Protocol 2; details: Protocol 2, TBIS-1 substrate, 45 min at 37° C.; read-out: hADAMTS-5 potency IC50
T1 sequence (Q9UNA0 262-930): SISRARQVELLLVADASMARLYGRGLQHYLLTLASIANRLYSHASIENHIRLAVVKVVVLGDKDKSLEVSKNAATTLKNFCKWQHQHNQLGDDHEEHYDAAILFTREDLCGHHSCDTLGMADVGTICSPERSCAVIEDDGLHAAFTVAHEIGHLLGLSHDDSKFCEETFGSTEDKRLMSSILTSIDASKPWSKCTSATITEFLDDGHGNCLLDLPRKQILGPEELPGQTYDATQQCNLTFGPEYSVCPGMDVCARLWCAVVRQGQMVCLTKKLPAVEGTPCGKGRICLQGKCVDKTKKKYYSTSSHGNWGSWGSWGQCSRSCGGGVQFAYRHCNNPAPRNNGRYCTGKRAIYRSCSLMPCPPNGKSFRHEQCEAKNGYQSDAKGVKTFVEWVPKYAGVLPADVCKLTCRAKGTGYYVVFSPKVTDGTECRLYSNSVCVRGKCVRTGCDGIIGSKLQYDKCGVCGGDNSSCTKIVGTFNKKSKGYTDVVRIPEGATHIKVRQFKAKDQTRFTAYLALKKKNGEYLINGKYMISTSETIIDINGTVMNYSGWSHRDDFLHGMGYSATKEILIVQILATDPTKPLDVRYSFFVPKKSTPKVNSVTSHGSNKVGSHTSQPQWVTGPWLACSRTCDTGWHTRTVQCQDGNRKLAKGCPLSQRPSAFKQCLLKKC
Procedure: The basis for the assay is the cleavage of the substrate TBIS-1 (5 FAM-[…] (5TAMRA)K-NH2) (SEQ ID NO: 2) by human ADAMTS-5.
(§1) The reaction is initiated by adding to the assay plate TBIS-1 (10 μL, 4.5 μM, Anaspec) in the same buffer.
Finally, the fluorescence is read on the Envision (Perkin Elmer) after an incubation of 45 min at 37° C. (Excitation 485 nm, emission 530).

human ADAMTS6 = human ADAMTS6 (Homo sapiens (Human), UniProt Q9UKP5); assay: hADAMTS-6 520 MMP FRET substrate XII cleavage assay; details: 37° C. for 2 h, read-out: hADAMTS-6 potency IC50
Chain of human ADAMTS6 (Q9UKP5 other isoform, or with tags, fused parts or gaps): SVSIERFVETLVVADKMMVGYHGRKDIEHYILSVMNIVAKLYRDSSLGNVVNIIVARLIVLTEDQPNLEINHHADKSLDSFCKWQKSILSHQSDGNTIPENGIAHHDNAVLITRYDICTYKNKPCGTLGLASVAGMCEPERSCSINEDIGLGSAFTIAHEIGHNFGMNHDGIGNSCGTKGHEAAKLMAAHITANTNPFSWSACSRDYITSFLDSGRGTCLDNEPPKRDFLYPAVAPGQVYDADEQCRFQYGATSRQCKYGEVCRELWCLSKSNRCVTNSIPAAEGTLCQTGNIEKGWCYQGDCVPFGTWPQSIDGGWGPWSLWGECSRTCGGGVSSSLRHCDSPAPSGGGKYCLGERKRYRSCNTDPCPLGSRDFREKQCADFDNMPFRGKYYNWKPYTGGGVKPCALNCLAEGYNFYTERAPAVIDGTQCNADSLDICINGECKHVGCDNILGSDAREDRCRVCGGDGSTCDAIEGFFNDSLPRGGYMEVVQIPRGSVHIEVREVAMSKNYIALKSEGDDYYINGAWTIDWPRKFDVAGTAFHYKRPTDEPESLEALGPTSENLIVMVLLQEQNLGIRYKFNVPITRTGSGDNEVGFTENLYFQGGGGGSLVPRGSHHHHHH
Outline: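 FRET cleavage of 520 MMP Substrate XII (Arg-Pro-Lys-Pro-Tyr-Ala-Nva-Trp-Met-Lys) by 0.73 nM enzyme in 25 mM Tris pH8.0, 0.05% CHAPS, 2.5 mM CaCl2. Compound dilution series from 20 μM top, 1/5 steps; substrate added from 1 μM stock, 2 h at 37° C. Fluorescence read at exc485/em530 for IC50.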

human TACE = human TACE (Homo sapiens (Human), UniProt P78536); assay: hTACE 5FAM-[…]-5TAMRA cleavage assay; details: 75 min at room temperature, read-out: hTACE potency IC50
Chain of human TACE (P78536 215-671): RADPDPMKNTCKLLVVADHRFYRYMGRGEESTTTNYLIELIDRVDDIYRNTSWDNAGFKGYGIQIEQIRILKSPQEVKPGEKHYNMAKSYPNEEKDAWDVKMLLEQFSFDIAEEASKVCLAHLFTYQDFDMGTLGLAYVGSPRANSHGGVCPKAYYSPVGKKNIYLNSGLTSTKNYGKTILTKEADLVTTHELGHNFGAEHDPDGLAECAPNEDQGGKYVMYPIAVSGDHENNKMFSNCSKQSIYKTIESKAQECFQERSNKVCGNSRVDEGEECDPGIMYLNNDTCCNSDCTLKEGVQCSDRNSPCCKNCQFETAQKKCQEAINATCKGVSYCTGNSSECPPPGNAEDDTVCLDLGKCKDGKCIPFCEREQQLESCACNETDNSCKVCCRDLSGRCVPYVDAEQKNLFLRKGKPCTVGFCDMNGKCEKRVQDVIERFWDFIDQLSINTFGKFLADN
Procedure: Finally, the fluorescence is read on the Envision (Perkin Elmer) after an incubation of 75 min at room temperature (Excitation 485 nm, Emission 530).

rnADAMTS-5 (1-564-6H) = rnADAMTS-5 (1-564-6H) (Rattus norvegicus (Rat), UniProt Q6TY19); assay: Rat ADAMTS-5 TBIS-1 substrate cleavage assay; details: rnADAMTS-5, TBIS-1 substrate, 120 min at 37° C.; read-out: Rat ADAMTS-5 potency IC50
Chain of rnADAMTS-5 (1-564-6H) (Q6TY19 entry or part of it): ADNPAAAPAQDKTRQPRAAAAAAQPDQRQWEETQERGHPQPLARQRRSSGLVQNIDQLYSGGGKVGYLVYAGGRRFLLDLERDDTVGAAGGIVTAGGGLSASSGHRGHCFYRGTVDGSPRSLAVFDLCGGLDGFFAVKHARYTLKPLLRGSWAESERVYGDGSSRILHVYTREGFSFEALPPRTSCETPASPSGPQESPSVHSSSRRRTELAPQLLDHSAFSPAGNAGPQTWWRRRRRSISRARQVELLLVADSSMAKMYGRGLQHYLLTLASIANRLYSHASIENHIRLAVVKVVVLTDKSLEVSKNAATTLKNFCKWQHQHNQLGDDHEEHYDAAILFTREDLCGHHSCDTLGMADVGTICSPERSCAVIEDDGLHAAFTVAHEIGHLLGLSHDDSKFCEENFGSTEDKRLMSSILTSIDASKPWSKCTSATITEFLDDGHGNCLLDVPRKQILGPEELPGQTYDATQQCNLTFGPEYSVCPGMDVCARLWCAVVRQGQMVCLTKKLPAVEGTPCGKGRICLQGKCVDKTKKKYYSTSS
Procedure: The basis for the assay is the cleavage of the substrate TBIS-1 (5 FAM-[…] (5TAMRA)K-NH2) (SEQ ID NO: 2) by rnADAMTS-5 (1-564-6H).
as §1
Finally, the fluorescence is read on the Envision (Perkin Elmer) after an incubation of 120 min at 37° C. (Excitation 485 nm, emission 535).

human MMP13 = human MMP13 (Homo sapiens (Human), UniProt P45452); assay: hMMP13 390 MMP FRET Substrate I cleavage assay, Protocol 1; details: Protocol 1, 390 MMP FRET Substrate I; read-out: hMMP-13 potency IC50
Outline: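 Human MMP13 was preactivated with 1 mM p-aminophenylmercuric acetate for 1 h at 37° C. Cleavage of 390 MMP FRET Substrate I (2.5 μM as added) ran 45 min at room temperature, with fluorescence read at 485 nm excitation and 530 nm emission.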

human ADAMTS-5 [2] = molecular target: T1, human ADAMTS-5; assay: hADAMTS-5 TBIS-1 cleavage assay, Protocol 3; details: Protocol 3, TBIS-1 substrate, 90 min at 37° C.; read-out: hADAMTS-5 potency IC50
Procedure: as §1
Finally, the fluorescence is read on the Envision (Perkin Elmer) after an incubation of 90 min at 37° C. (Excitation 485 nm, emission 530).

IC50 (human ADAMTS-5 [1]) [nM] | IC50 (human ADAMTS6) [nM] | IC50 (human TACE; 5FAM-LAQAVRSSSRK-5TAMRA) [nM] | IC50 (rnADAMTS-5 (1-564-6H)) [nM] | IC50 (human MMP13) [nM] | IC50 (human ADAMTS-5 [2]) [nM] | IC50 (human TACE; 5FAM-[…]-5TAMRA) [nM] | Structure (SMILES)
> 100 | > 100 |  |  |  |  |  | O=C1NC(=O)[C@H](CCC(=O)N2CCC(c3ccccc3)CC2)N1 [Cpd 1, (S)-5-[(3-oxo-3-((4S)-phenylpiperidin-1-yl)propyl]) imidazolidine-2,4-dione]
> 100 | > 100 | > 100 |  |  |  |  | O=C1NC(=O)C(CCC(=O)N2CCC(c3ccccc3)CC2)N1 (centres unmarked) [Cpd 2, 5-[3-oxo-3-(4-phenyl-1-piperidyl)propyl] imidazolidine-2,4-dione]
50 to 100 | > 100 | > 100 | 50 to 100 |  |  |  | O=C1NC(=O)C(CCC(=O)N2CCC(c3ccccc3)CC2)(c2ccccc2)N1 (centres unmarked) [Cpd 3, 5-(3-oxo-3-(4-phenylpiperidin-1-yl)propyl)-5-phenyl imidazolidine-2,4-dione]
> 100 | > 100 | > 100 |  |  |  |  | CC1(CCC(=O)N2CCC(c3ccccc3)CC2)NC(=O)NC1=O (centres unmarked) [Cpd 4, 5-methyl-5-(3-oxo-3-(4-phenylpiperidin-1-yl)propyl) imidazolidine-2,4-dione]
50 to 100 | > 100 | > 100 |  |  |  |  | CC(C)C1(CCC(=O)N2CCC(c3ccccc3)CC2)NC(=O)NC1=O (centres unmarked) [Cpd 5, 5-isopropyl-5-(3-oxo-3-(4-phenylpiperidin-1-yl)propyl) imidazolidine-2,4-dione]
> 100 | > 100 |  |  |  |  |  | COc1ccccc1C1CCN(C(=O)CCC2(C)NC(=O)NC2=O)CC1 (centres unmarked) [Cpd 6, 5-(3-(4-(2-methoxyphenyl)piperidin-1-yl)-3-oxopropyl)-5-methyl-imidazolidine-2,4-dione]
50 to 100 | > 100 | > 100 | 50 to 100 | > 100 |  |  | O=C1NC(=O)C(CCC(=O)N2CCC(c3ccccc3)CC2)(C2CC2)N1 (centres unmarked) [Cpd 7, 5-cyclopropyl-5-(3-oxo-3-(4-phenylpiperidin-1-yl)propyl) imidazolidine-2,4-dione]
> 100 | > 100 |  |  |  |  |  | Cc1ccc(C2CCN(C(=O)CCC3(C)NC(=O)NC3=O)CC2)cc1 (centres unmarked) [Cpd 8, 5-methyl-5-(3-oxo-3-(4-p-tolylpiperidin-1-yl)propyl) imidazolidine-2,4-dione]
50 to 100 | 25 to 50 | > 100 | > 100 | > 100 |  |  | CC1(CCC(=O)N2CCC(c3cc(Cl)cc(Cl)c3)CC2)NC(=O)NC1=O (centres unmarked) [Cpd 9, 5-(3-(4-(3,5-dichlorophenyl)piperidin-1-yl)-3-oxopropyl)-5-methyl-imidazolidine-2,4-dione]
> 100 | > 100 | > 100 |  | > 100 |  |  | CC1(CCC(=O)N2CCC(c3ccc(F)cc3)CC2)NC(=O)NC1=O (centres unmarked) [Cpd 10, 5-(3-(4-(4-fluorophenyl)piperidin-1-yl)-3-oxopropyl)-5-methyl-imidazolidine-2,4-dione]
> 100 | 50 to 100 | > 100 |  | > 100 |  |  | CC1(CCC(=O)N2CCC(c3cccc(Cl)c3)CC2)NC(=O)NC1=O (centres unmarked) [Cpd 11, 5-(3-(4-(3-chlorophenyl)piperidin-1-yl)-3-oxopropyl)-5-methyl-imidazolidine-2,4-dione]
> 100 | 50 to 100 | > 100 |  | > 100 |  |  | CC1(CCC(=O)N2CCC(c3ccc(Cl)cc3)CC2)NC(=O)NC1=O (centres unmarked) [Cpd 12, 5-(3-(4-(4-chlorophenyl)piperidin-1-yl)-3-oxopropyl)-5-methyl-imidazolidine-2,4-dione]
> 100 | > 100 |  |  |  |  |  | CC1(CCC(=O)N2CCC(c3cccc(F)c3)CC2)NC(=O)NC1=O (centres unmarked) [Cpd 13, 5-(3-(4-(3-fluorophenyl)piperidin-1-yl)-3-oxopropyl)-5-methyl-imidazolidine-2,4-dione]
> 100 | > 100 |  |  |  |  |  | CC1(CCC(=O)N2CCC(c3ccccc3F)CC2)NC(=O)NC1=O (centres unmarked) [Cpd 14, 5-(3-(4-(2-fluorophenyl)piperidin-1-yl)-3-oxopropyl)-5-methyl-imidazolidine-2,4-dione]
> 100 | > 100 |  |  |  |  |  | Cc1cccc(C2CCN(C(=O)CCC3(C)NC(=O)NC3=O)CC2)c1 (centres unmarked) [Cpd 15, 5-methyl-5-(3-oxo-3-(4-m-tolylpiperidin-1-yl)propyl) imidazolidine-2,4-dione]
50 to 100 | > 100 | > 100 | 50 to 100 | > 100 |  |  | O=C1NC(=O)C(CCC(=O)N2CCC(c3ccccc3)CC2)(c2cccnc2)N1 (centres unmarked) [Cpd 16, 5-(3-oxo-3-(4-phenyl-piperidin-1-yl)propyl)-5-(pyridin-3-yl)imidazolidine-2,4-dione]
 | > 100 | > 100 | 25 to 50 | > 100 | 25 to 50 |  | O=C1NC(=O)C(CCC(=O)N2CCC(c3cccc(F)c3)CC2)(C2CC2)N1 (centres unmarked) [Cpd 19, 5-cyclopropyl-5-(3-(4-(3-fluorophenyl)piperidin-1-yl)-3-oxopropyl) imidazolidine-2,4-dione]
 | > 100 | > 100 | 50 to 100 | > 100 | 50 to 100 |  | C[C@@H](C[C@@]1(C2CC2)NC(=O)NC1=O)C(=O)N1CCC(c2ccccc2)CC1 [Cpd 20]
 | 0.001 to 25 | > 100 | > 100 | > 100 | > 100 |  | COc1cc(C2CCN(C(=O)CC[C@H]3NC(=O)NC3=O)CC2)cc(OC)c1Cl [Cpd 21, (R)-5-(3-(4-(4-chloro-3,5-dimethoxy-phenyl)piperidin-1-yl)-3-oxopropyl) imidazolidine-2,4-dione]
 | 0.001 to 25 |  | > 100 | > 100 | > 100 | 50 to 100 | COc1cc(C2CCN(C(=O)CCC3(C)NC(=O)NC3=O)CC2)cc(OC)c1Cl (centres unmarked) [Cpd 22, 5-(3-(4-(4-chloro-3,5-dimethoxy-phenyl)piperidin-1-yl)-3-oxopropyl)-5-methyl-imidazolidine-2,4-dione]
 | 50 to 100 | > 100 | 50 to 100 | > 100 | 50 to 100 |  | C[C@@H](C[C@@]1(C)NC(=O)NC1=O)C(=O)N1CCC(c2ccccc2)CC1 [Cpd 23, (R)-5-methyl-5-((S)-2-methyl-3-oxo-3-(4-phenylpiperidin-1-yl)propyl) imidazolidine-2,4-dione]
